From PubChem BioAssay AID328 (DTP/NCI, 2004)
Several values for one entry are separate records, joined by “and”; a condition that tells them apart may be missing. Equal entries are not always repeated. Toxic doses and inconclusive results are not listed. How the source made its calls: active means survival T/C of 150% or more; inactive means T/C below 125% in these data.

Test system: BDF1 mice, P388 leukemia ip, median survival T/C
Test: NCI In Vivo Anticancer Drug Screen. Data for tumor model P388 Leukemia (intraperitoneal) in B6D2F1 (BDF1) mice
Conditions: endpoint: median survival time, higher = longer survival
How it was run: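 Each value expresses how treatment altered survival: treated-mouse outcome over vehicle-mouse outcome, both groups bearing the transplanted tumour.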

[1] = dose: 25.0 mg/kg/injection, schedule: Q04DX003 (ip), vehicle: Klucel (hydroxypropylcellulose) (HPC)
[2] = dose: 50.0 mg/kg/injection, schedule: Q04DX003 (ip), vehicle: Klucel (hydroxypropylcellulose) (HPC)
[3] = dose: 100.0 mg/kg/injection, schedule: Q04DX003 (ip), vehicle: Klucel (hydroxypropylcellulose) (HPC)
[4] = dose: 50.0 mg/kg/injection, schedule: Q01DX009 (ip), vehicle: water
[5] = dose: 50.0 mg/kg/injection, schedule: Q01DX009 (ip), vehicle: saline with Tween-80
[6] = dose: 100.0 mg/kg/injection, schedule: Q01DX009 (ip), vehicle: saline with Tween-80
[7] = dose: 200.0 mg/kg/injection, schedule: Q01DX009 (ip), vehicle: saline with Tween-80
[8] = dose: 100.0 mg/kg/injection, schedule: Q01DX001 (ip), vehicle: Klucel (hydroxypropylcellulose) (HPC)
[9] = dose: 200.0 mg/kg/injection, schedule: Q01DX001 (ip), vehicle: Klucel (hydroxypropylcellulose) (HPC)
[10] = dose: 400.0 mg/kg/injection, schedule: Q01DX001 (ip), vehicle: Klucel (hydroxypropylcellulose) (HPC)
[11] = dose: 12.5 mg/kg/injection, schedule: Q01DX009 (ip), vehicle: Klucel (hydroxypropylcellulose) (HPC)
[12] = dose: 100.0 mg/kg/injection, schedule: Q04DX003 (ip), vehicle: saline with Tween-80
[13] = dose: 200.0 mg/kg/injection, schedule: Q04DX003 (ip), vehicle: saline with Tween-80
[14] = dose: 400.0 mg/kg/injection, schedule: Q04DX003 (ip), vehicle: saline with Tween-80

Measured: T/C

C=CCOCCC(=O)OCC=C
inactive: dose: 12.0 mg/kg/injection, schedule: Q01DX001 (ip), vehicle: Klucel (hydroxypropylcellulose) (HPC) 104 % of control | dose: 25.0 mg/kg/injection, schedule: Q01DX001 (ip), vehicle: Klucel (hydroxypropylcellulose) (HPC) 100 % of control | [1] 100 % of control | dose: 50.0 mg/kg/injection, schedule: Q01DX001 (ip), vehicle: Klucel (hydroxypropylcellulose) (HPC) 86 % of control | [2] 104 % of control | [3] 86 % of control and 100 % of control

O=NO.O=N[O-].O=N[O-].[Co+3].[NH-]CC[N-]CCO.[NH-]CC[N-]CCO
inactive: dose: 25.0 mg/kg/injection, schedule: Q01DX009 (ip), vehicle: water 104 % of control | dose: 25.0 mg/kg/injection, schedule: Q04DX003 (ip), vehicle: water 100 % of control | [4] 98 % of control | dose: 50.0 mg/kg/injection, schedule: Q04DX003 (ip), vehicle: water 109 % of control | dose: 100.0 mg/kg/injection, schedule: Q04DX003 (ip), vehicle: water 104 % of control

CCC1CCCC1O (configuration not stated)
inactive: [5] 101 % of control | [6] 102 % of control | [7] 100 % of control

COc1cc2c(c(OC)c1OC)-c1ccc(O)cc1[C@@H](NC(C)=O)CC2
inactive: dose: 2.5 mg/kg/injection, schedule: Q01DX010 (ip), vehicle: water 86 % of control | dose: 5.0 mg/kg/injection, schedule: Q01DX010 (ip), vehicle: water 118 % of control | dose: 10.0 mg/kg/injection, schedule: Q01DX010 (ip), vehicle: water 109 % of control

c1ccc(-c2[nH]c3ccccc3c2-c2ccccc2)cc1
inactive: [8] 109 % of control | [9] 113 % of control | [10] 122 % of control

COc1cccc2c1C(=O)c1c(OC)cccc1C2=O
inactive: [1] 98 % of control | [2] 97 % of control | [3] 103 % of control | dose: 200.0 mg/kg/injection, schedule: Q04DX003 (ip), vehicle: Klucel (hydroxypropylcellulose) (HPC) 98 % of control | dose: 400.0 mg/kg/injection, schedule: Q04DX003 (ip), vehicle: Klucel (hydroxypropylcellulose) (HPC) 97 % of control

CC(C)CCCC(=O)CCCCCCC(=O)CCN(O)C(=O)C(N)CO (configuration not stated)
inactive: dose: 6.25 mg/kg/injection, schedule: Q01DX009 (ip), vehicle: Klucel (hydroxypropylcellulose) (HPC) 98 % of control | [11] 94 % of control | dose: 25.0 mg/kg/injection, schedule: Q01DX009 (ip), vehicle: Klucel (hydroxypropylcellulose) (HPC) 94 % of control

OC1(O)COC(c2ccccc2)OC1
inactive: [8] 104 % of control | dose: 100.0 mg/kg/injection, schedule: Q01DX009 (ip), vehicle: Klucel (hydroxypropylcellulose) (HPC) 120 % of control | [9] 104 % of control | dose: 200.0 mg/kg/injection, schedule: Q01DX009 (ip), vehicle: Klucel (hydroxypropylcellulose) (HPC) 110 % of control | [10] 100 % of control | dose: 400.0 mg/kg/injection, schedule: Q01DX009 (ip), vehicle: Klucel (hydroxypropylcellulose) (HPC) 115 % of control

Cc1cc(O)c2c(c1)OC1(C)CCC3C(C)(C)CCCC34COC2C14 (configuration not stated)
inactive: dose: 50.0 mg/kg/injection, schedule: Q01DX009 (ip), vehicle: other 109 % of control | dose: 100.0 mg/kg/injection, schedule: Q01DX009 (ip), vehicle: other 114 % of control | dose: 200.0 mg/kg/injection, schedule: Q01DX009 (ip), vehicle: other 92 % of control and 110 % of control | dose: 400.0 mg/kg/injection, schedule: Q01DX009 (ip), vehicle: other 101 % of control

CNC1=CC(=O)C1(F)F
inactive: dose: 25.0 mg/kg/injection, schedule: Q01DX001 (ip), vehicle: saline sonified 100 % of control | dose: 50.0 mg/kg/injection, schedule: Q01DX001 (ip), vehicle: saline sonified 109 % of control | dose: 100.0 mg/kg/injection, schedule: Q01DX001 (ip), vehicle: saline sonified 100 % of control

O=S(=O)(Nc1ccccc1Cl)c1ccccc1
inactive: dose: 100.0 mg/kg/injection, schedule: Q04DX003 (ip), vehicle: gum acacia 111 % of control | dose: 200.0 mg/kg/injection, schedule: Q04DX003 (ip), vehicle: gum acacia 96 % of control | dose: 400.0 mg/kg/injection, schedule: Q04DX003 (ip), vehicle: gum acacia 111 % of control

COc1ccc2[nH]c(=S)[nH]c(=S)c2c1
inactive: [12] 92 % of control | [13] 91 % of control | [14] 100 % of control

CC1C(=O)OC2CC[N+]3([O-])CC=C(COC(=O)C(C)(O)C1(C)O)C23 (configuration not stated)
inactive: dose: 100.0 mg/kg/injection, schedule: Q01DX010 (ip), vehicle: saline 100 % of control | dose: 400.0 mg/kg/injection, schedule: Q01DX010 (ip), vehicle: saline 110 % of control

CCC(c1ccc2cc(OC)ccc2c1)C(C)(C)C(=O)F (configuration not stated)
inactive: [11] 116 % of control | dose: 33.0 mg/kg/injection, schedule: Q01DX009 (ip), vehicle: Klucel (hydroxypropylcellulose) (HPC) 104 % of control | dose: 75.0 mg/kg/injection, schedule: Q01DX009 (ip), vehicle: Klucel (hydroxypropylcellulose) (HPC) 113 % of control

CCN(CC)CCCC(C)NC(=O)c1ccc(N(C)C)nc1 (configuration not stated)
inactive: [4] 93 % of control

CCOC1=C(C#N)CC2(CC1)c1ccccc1-c1ccccc12
inactive: [12] 95 % of control | [13] 95 % of control | [14] 91 % of control

NC(=S)N/N=C/c1ccc2c(c1)OCO2
inactive: dose: 50.0 mg/kg/injection, schedule: Q04DX003 (ip), vehicle: saline with Tween-80 95 % of control | [12] 100 % of control

CC12CC[C]([Hg][I])(CC1)C2(C)C
inactive: dose: 3.13 mg/kg/injection, schedule: Q01DX009 (ip), vehicle: saline with Tween-80 121 % of control | dose: 6.25 mg/kg/injection, schedule: Q01DX009 (ip), vehicle: saline with Tween-80 121 % of control | dose: 12.5 mg/kg/injection, schedule: Q01DX009 (ip), vehicle: saline with Tween-80 114 % of control

Cc1ccc(C)c2c1[nH]c1c(C)c3ccncc3c(C)c12
inactive: dose: 25.0 mg/kg/injection, schedule: Q01DX001 (ip), vehicle: saline with Tween-80 101 % of control | dose: 50.0 mg/kg/injection, schedule: Q01DX001 (ip), vehicle: saline with Tween-80 91 % of control | dose: 100.0 mg/kg/injection, schedule: Q01DX001 (ip), vehicle: saline with Tween-80 96 % of control

CC1(O)c2cccc(Sc3ccccc3)c2C(C)(O)c2c(Sc3ccccc3)cccc21 (configuration not stated)
inactive: [5] 107 % of control | [6] 99 % of control | [7] 98 % of control
